For one compound, EC50 results are on record in paper PMC3105069, “Nicotinic Acid Receptor Abnormalities in Human Skin Cancer: Implications for a Role in Epidermal Differentiation” (PLoS ONE, 2011).

The target in this experiment is T1, GPR109B (Homo sapiens, UniProt P49019).
T1 construct: gene HCAR3
T1 sequence (P49019 whole entry): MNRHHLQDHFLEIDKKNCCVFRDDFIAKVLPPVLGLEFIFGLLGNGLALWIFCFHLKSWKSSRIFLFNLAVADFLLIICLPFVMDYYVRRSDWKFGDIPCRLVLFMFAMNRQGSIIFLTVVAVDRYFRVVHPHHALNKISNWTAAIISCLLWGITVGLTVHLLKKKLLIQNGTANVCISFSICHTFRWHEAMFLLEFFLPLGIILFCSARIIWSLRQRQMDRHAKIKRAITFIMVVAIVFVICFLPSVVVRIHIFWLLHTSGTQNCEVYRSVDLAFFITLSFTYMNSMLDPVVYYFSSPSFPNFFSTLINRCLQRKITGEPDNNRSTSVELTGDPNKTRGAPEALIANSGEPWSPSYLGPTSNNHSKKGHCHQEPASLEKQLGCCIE

Take `O=C(O)c1cccnc1` [nicotinic acid]: the EC50 was found to be 25 µM.
